Where a chain is given by its changes, count along the chain named. pIC50: −log10 of the molar value.
Legend:
[1] = target: T1, V804M mutant RET kinase (N-terminal GST tagged recombinant human V804M mutant RET cytoplasmic domain, aa 658-end) (Homo sapiens, UniProt P07949, V804M); experiment: RET enzyme assay (HTRF KinEASE TK), V804M; type: biochemical; settings: 1 mM ATP, 40 min incubation at 22° C.
T1 construct: human V804M mutant RET cytoplasmic domain (aa 658-end); GST (N); purchased Millipore 14-760
T1 sequence (P07949 658-1114 V804M limits assumed): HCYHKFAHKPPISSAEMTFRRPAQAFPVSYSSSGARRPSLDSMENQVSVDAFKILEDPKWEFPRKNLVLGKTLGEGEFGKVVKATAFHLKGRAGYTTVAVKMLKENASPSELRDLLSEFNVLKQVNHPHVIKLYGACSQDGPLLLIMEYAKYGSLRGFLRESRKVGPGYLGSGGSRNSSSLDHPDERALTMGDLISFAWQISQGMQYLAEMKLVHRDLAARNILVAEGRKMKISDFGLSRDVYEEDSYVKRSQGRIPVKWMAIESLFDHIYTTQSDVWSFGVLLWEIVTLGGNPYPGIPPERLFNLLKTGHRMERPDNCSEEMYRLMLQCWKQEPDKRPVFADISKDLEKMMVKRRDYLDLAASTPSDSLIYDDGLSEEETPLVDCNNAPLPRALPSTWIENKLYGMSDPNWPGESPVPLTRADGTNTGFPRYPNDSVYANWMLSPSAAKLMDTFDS
Procedure: (§1) Assay A: RET Enzyme Assay
(§2) Compounds of formulas I, II, or III are screened for their ability to inhibit wildtype, V804M, and G810S mutant RET kinase using CisBio's HTRF® KinEASE™TK assay technology. N-terminal GST tagged recombinant human RET cytoplasmic domain (aa 658-end) from Eurofins ([…]; Catalog No. 14-570M) or N-terminal GST tagged recombinant human V804M mutant RET cytoplasmic domain (aa 658-end) from Millipore (1.25 nM enzyme; Catalog No. 14-760) or N-Terminal GST-tagged recombinant human G810S (aa-658-end) (1.25 nM Enzyme; produced in insect cells) is incubated with 62.5 nM TK-substrate biotin (CisBio, part of Catalog No. 62TK0PEC) and 1 mM ATP along with test compound (0.4% final DMSO in the assay) in a 1× Cisbio enzymatic buffer consisting of […], 5 mM MgCl2, 0.04% BSA and 0.05% Tween20 in a volume of 10 μL. Compounds are typically prepared in a threefold serial dilution in DMSO and added to the assay to give the appropriate final concentration. After a 40-60 min (40 min for V804M, 60 min for WT and G810S) incubation at 22° C., the reaction is quenched by adding quench solution (10 μL) containing 7.8 nM Streptavidine-XL665 and 0.5×TK-ab-Cryptate in HTRF detection buffer (all from CisBio, part of Cat. No. 62TK0PEC). After a 60-80 min incubation (60 minutes for WT, 80 minutes for V804M and G810S) at 22° C., the extent of reaction is determined using a PHERastar plate reader via HTRF detection at excitation/emission 337/665 nm. Percent of inhibition is calculated with 0% inhibition referring to control conditions containing no compound (0.4% DMSO only) and 100% inhibition represented by conditions containing no enzyme. The % inhibition values are fit to a 4 parameter logistic curve, and the determined IC50 value is defined as the estimated concentration of inhibitor at the inflexion point of the fitted curve.

[2] = target: T2, G810S mutant RET kinase (N-Terminal GST-tagged recombinant human G810S, aa-658-end) (Homo sapiens, UniProt P07949, G810S); experiment: RET enzyme assay (HTRF KinEASE TK), G810S; type: biochemical; settings: 1 mM ATP, 60 min incubation at 22° C.
T2 construct: recombinant human G810S (aa-658-end); GST (N); made in house; host or cells: insect cells
T2 sequence (P07949 658-1114 G810S limits assumed): T1 sequence (P07949 658-1114 V804M limits assumed) with M147V, G153S
Procedure: as §1, §2

SMILES	pIC50 [1]	pIC50 [2]
CC(C(=O)Nc1cc(C(C)(C)CC(F)(F)F)on1)c1ccc(-c2nn(C(C)C)c(N)c2C(N)=O)nc1 (single isomer, unassigned; isomer 2) [Example 68, 5-Amino-1-isopropyl-3-(5-(1-oxo-1-((5-(4,4,4-trifluoro-2-methylbutan-2-yl)isoxazol-3-yl)amino)propan-2-yl)pyridin-2-yl)-1H-pyrazole-4-carboxamide, Isomer 2]	> 7.00	> 7.00
CC(C(=O)Nc1cc(C2CC(C)(C)C2)no1)c1ccc(-c2nn(C(C)C)c(N)c2C(N)=O)cc1 (single isomer, unassigned; isomer 1) [Example 98, 5-Amino-3-[4-[2-[[3-(3,3-dimethylcyclobutyl)isoxazol-5-yl]amino]-1-methyl-2-oxo-ethyl]phenyl]-1-isopropyl-pyrazole-4-carboxamide, Isomer 1]	> 7.00	> 7.00
CCC(C)(C)c1cc(NC(=O)C(C)c2ccc(-c3nn(C(C)C)c(N)c3C(N)=O)nc2)no1 (single isomer, unassigned; isomer 2) [Example 66, 5-Amino-1-isopropyl-3-[5-(1-[[5-(2-methylbutan-2-yl)-1,2-oxazol-3-yl]carbamoyl]ethyl)pyridin-2-yl]pyrazole-4-carboxamide, Isomer 2]	> 7.00	> 7.00
CC(C(=O)Nc1cc(C(C)(C)C(F)(F)F)on1)c1ccc(-c2nn(C(C)C)c(N)c2C(N)=O)cc1 (single isomer, unassigned; isomer 1) [Example 81, 5-Amino-1-isopropyl-3-[4-(1-[[5-(1,1,1-trifluoro-2-methylpropan-2-yl)-1,2-oxazol-3-yl]carbamoyl]ethyl)phenyl]pyrazole-4-carboxamide, Isomer 1]	> 7.00	> 7.00
CC(C(=O)Nc1cc(C(C)(C)C(F)(F)F)on1)c1ccc(-c2nn(C(C)C)c(N)c2C(N)=O)nc1 (single isomer, unassigned; isomer 2) [Example 64, 5-Amino-1-isopropyl-3-[5-(1-[[5-(1,1,1-trifluoro-yl)-1,2-oxazol-3-2-methylpropan-2-yl]carbamoyl]ethyl)pyridin-2-yl]pyrazole-4-carboxamide, Isomer 2]	> 7.00	> 7.00
CC(C(=O)Nc1cc(C(C)(C)C(C)(F)F)on1)c1ccc(-c2nn(C(C)C)c(N)c2C(N)=O)nc1 (single isomer, unassigned; isomer 2) [Example 70, 5-Amino-3-[5-(1-[[5-(3,3-difluoro-2-methylbutan-2-yl)-1,2-oxazol-3-yl]carbamoyl]ethyl)pyridin-2-yl]-1-isopropylpyrazole-4-carboxamide, Isomer 2]	> 7.00	> 7.00
CC(C(=O)Nc1cc(CC(C)(C)C)no1)c1ccc(-c2nn(C(C)C)c(N)c2C(N)=O)cc1 (single isomer, unassigned; isomer 1) [Example 1, 5-Amino-3-[4-(1-[[3-(2,2-dimethylpropyl)-1,2-oxazol-5-yl]carbamoyl]ethyl)phenyl]-1-isopropylpyrazole-4-carboxamide, Isomer 1]	> 7.00	> 7.00
CC(C(=O)Nc1cc(C(C)(C)C)sn1)c1ccc(-c2nn(C(C)C)c(N)c2C(N)=O)cc1 (single isomer, unassigned; isomer 2) [Example 80, 5-Amino-3-(4-[1-[(5-tert-butyl-1,2-thiazol-3-yl)carbamoyl]ethyl]phenyl)-1-isopropylpyrazole-4-carboxamide, isomer 2]	> 7.00	> 7.00
CC(C(=O)Nc1cc(C2(C)CC2)no1)c1ccc(-c2nn(C(C)C)c(N)c2C(N)=O)cc1 (single isomer, unassigned; isomer 1) [Example 35, 5-Amino-1-isopropyl-3-[4-(1-[[3-(1-methylcyclopropyl)-1,2-oxazol-5-yl]carbamoyl]ethyl)phenyl]pyrazole-4-carboxamide, Isomer 1]	> 7.00	> 7.00
CCC(C)(C)c1cc(NC(=O)C(C)c2ccc(-c3nn(C(C)C)c(N)c3C(N)=O)cc2)no1 (single isomer, unassigned; isomer 2) [Example 52, 5-Amino-1-isopropyl-3-[4-(1-[[5-(2-methylbutan-2-yl)-1,2-oxazol-3-yl]carbamoyl]ethyl)phenyl]pyrazole-4-carboxamide, Isomer 2]	> 7.00	> 7.00
CC(C(=O)Nc1cc(C(C)(C)C(F)(F)F)no1)c1ccc(-c2nn(C(C)C)c(N)c2C(N)=O)cn1 (single isomer, unassigned; isomer 2) [Example 90, 5-Amino-1-isopropyl-3-[6-[1-methyl-2-oxo-2-[[3-(2,2,2-trifluoro-1,1-dimethyl-ethyl)isoxazol-5-yl]amino]ethyl]-3-pyridyl]pyrazole-4-carboxamide, Isomer 2]	> 7.00	> 7.00
CC(C(=O)Nc1cc(C(C)(C)C(C)(F)F)on1)c1ccc(-c2nn(C(C)C)c(N)c2C(N)=O)cc1 (single isomer, unassigned; isomer 2) [Example 76, 5-Amino-3-[4-(1-[[5-(3,3-difluoro-2-methylbutan-2-yl)-1,2-oxazol-3-yl]carbamoyl]ethyl)phenyl]-1-isopropylpyrazole-4-carboxamide, Isomer 2]	> 7.00	> 7.00
CC(C(=O)Nc1cc(-c2ccc(Cl)cc2Cl)no1)c1ccc(-c2nn(C(C)C)c(N)c2C(N)=O)cn1 (single isomer, unassigned; isomer 2) [Example 94, 5-Amino-1-isopropyl-3-[6-[2-[[3-(2,4-dichlorophenyl)isoxazol-5-yl]amino]-1-methyl-2-oxo-ethyl]-3-pyridyl]pyrazole-4-carboxamide, Isomer 2]	> 7.00	> 7.00
CC(C(=O)Nc1cc(C(C)(C)C(F)(F)F)no1)c1ccc(-c2nn(C(C)C)c(N)c2C(N)=O)cc1 (single isomer, unassigned; isomer 1) [Example 17, 5-Amino-1-isopropyl-3-[4-(1-[[3-(1,1,1-trifluoro-2-methylpropan-2-yl)-1,2-oxazol-5-yl]carbamoyl]ethyl)phenyl]pyrazole-4-carboxamide, Isomer 1]	> 7.00	> 7.00
CC(C(=O)Nc1cc(-c2ccc(Cl)cc2Cl)no1)c1ccc(-c2nn(C(C)C)c(N)c2C(N)=O)cc1 (single isomer, unassigned; isomer 1) [Example 45, 5-Amino-3-[4-(1-[[3-(2,4-dichlorophenyl)-1,2-oxazol-5-yl]carbamoyl]ethyl)phenyl]-1-isopropylpyrazole-4-carboxamide, Isomer 1]	> 7.00	> 7.00
CCC(C)(C)c1cc(NC(=O)C(C)c2ccc(-c3nn(C(C)C)c(N)c3C(N)=O)cn2)on1 (single isomer, unassigned; isomer 2) [Example 84, 5-Amino-1-isopropyl-3-[6-[2-[[3-(1,1-dimethylpropyl)isoxazol-5-yl]amino]-1-methyl-2-oxo-ethyl]-3-pyridyl]pyrazole-4-carboxamide, Isomer 2]	> 7.00	> 7.00
